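Each compound was tested at five concentrations against cells in 96-well plates for 48 hours. At the GI50, growth is halved. Definition used: TGI = concentration required for complete inhibition of growth.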 Bounds are passed on as bounds.

Among the test systems are K-562 leukemia; HT29 colon; SK-MEL-5 melanoma; OVCAR-8 ovarian; MALME-3M melanoma; HCC-2998 colon; MCF7 breast; UACC-62 melanoma; HCT-116 colon; T-47D breast.
Common to all, as to assay: DTP human tumour cell line panel, 48 h

A word on the GI50: it is the concentration that inhibits growth by half. As usually defined, the TGI is the concentration at which net growth stops. On to `CC(C)(C)N1CC(OC(N)=O)C1`, for which the GI50 in the assay on K-562 leukemia, in the assay on HT29 colon, with SK-MEL-5 melanoma, in the assay with OVCAR-8 ovarian, in the assay with MALME-3M melanoma and with HCC-2998 colon was > 100 µM throughout. The GI50 with MCF7 breast, in the assay with UACC-62 melanoma, with HCT-116 colon and with T-47D breast was > 100 µM each time. Besides, the TGI in the assay on K-562 leukemia, in the assay on HT29 colon, with SK-MEL-5 melanoma, in the assay on OVCAR-8 ovarian, with MALME-3M melanoma and in the assay with HCC-2998 colon was > 100 µM each time. Besides, the concentration for total growth inhibition (TGI) with MCF7 breast, in the assay with UACC-62 melanoma, in the assay with HCT-116 colon and in the assay with T-47D breast was > 100 µM throughout.

For `CC(=O)NNC(=S)/N=C/c1c(O)cc(C)oc1=O`, the concentration for total growth inhibition (TGI) in the assay on HT29 colon, in the assay with SK-MEL-5 melanoma, in the assay on OVCAR-8 ovarian, in the assay with HCC-2998 colon, with MCF7 breast and in the assay on HCT-116 colon was > 100 µM throughout. Also, the TGI in the assay with T-47D breast is > 100 µM.

For `CC(=O)Nc1ccc2oc(=O)c3ccccc3c2c1`, the TGI with K-562 leukemia, in the assay on HT29 colon, with SK-MEL-5 melanoma, in the assay on OVCAR-8 ovarian, with MALME-3M melanoma and in the assay on HCC-2998 colon was > 100 µM throughout. Besides, the TGI in the assay on MCF7 breast, with UACC-62 melanoma, in the assay on HCT-116 colon and in the assay with T-47D breast was > 100 µM throughout.

With `COc1ccc(-c2nc(N)c3ncn(C4OC(CO)C(O)C4O)c3n2)cc1` (stereo not drawn), the TGI with K-562 leukemia, in the assay with HT29 colon, in the assay with SK-MEL-5 melanoma, in the assay with OVCAR-8 ovarian, in the assay on MALME-3M melanoma and in the assay on MCF7 breast was > 100 µM throughout. Also, the total growth inhibition concentration (TGI) with UACC-62 melanoma, in the assay with HCT-116 colon and in the assay with T-47D breast was > 100 µM each time.

Regarding `Cc1cccc2c1O/C(=C\c1ncc([N+](=O)[O-])n1C)C2=O`, the GI50 is 0.304 µM in the assay on K-562 leukemia; 0.104 µM in the assay on HT29 colon; 0.152 µM in the assay on SK-MEL-5 melanoma; 0.166 µM with OVCAR-8 ovarian; 0.185 µM in the assay with MALME-3M melanoma; 0.881 µM in the assay on HCC-2998 colon. For the same compound, the GI50 was 0.243 µM with MCF7 breast, 0.316 µM with UACC-62 melanoma, 0.0557 µM with HCT-116 colon and 9.23 µM in the assay with T-47D breast. Moreover, the TGI in the assay with K-562 leukemia amounted to 3.18 µM; with HT29 colon, 0.404 µM; in the assay on SK-MEL-5 melanoma, 0.367 µM; in the assay on MALME-3M melanoma, 0.474 µM; in the assay with HCC-2998 colon, 3.59 µM; in the assay on MCF7 breast it was 3.27 µM. Further, the TGI in the assay on UACC-62 melanoma was 1.09 µM; with HCT-116 colon, 0.422 µM; with T-47D breast, 58.7 µM.

As to `COC1OC(CBr)C(OC(c2ccccc2)(c2ccccc2)c2ccccc2)C(OC(c2ccccc2)(c2ccccc2)c2ccccc2)C1OC(c1ccccc1)(c1ccccc1)c1ccccc1` (stereo not drawn), the TGI with K-562 leukemia, in the assay with HT29 colon, with SK-MEL-5 melanoma, in the assay on OVCAR-8 ovarian, in the assay on MALME-3M melanoma and with HCC-2998 colon was > 100 µM throughout. Also, the TGI with MCF7 breast, with UACC-62 melanoma, in the assay on HCT-116 colon and in the assay with T-47D breast was > 100 µM each time.

Consider `COc1cc(C)[nH]c(=O)c1CN1CCc2c(Cl)cc([C@H](OC)C3COC3)c(Cl)c2C1=O`, for which the GI50 with K-562 leukemia, in the assay with HT29 colon, in the assay on SK-MEL-5 melanoma, in the assay on OVCAR-8 ovarian, in the assay on MALME-3M melanoma and with HCC-2998 colon was > 100 µM throughout. Also, the GI50 in the assay with MCF7 breast is > 100 µM; in the assay with UACC-62 melanoma, > 100 µM; with HCT-116 colon, > 100 µM; in the assay with T-47D breast, 55.4 µM. In addition, the TGI in the assay on K-562 leukemia, with HT29 colon, in the assay with SK-MEL-5 melanoma, with OVCAR-8 ovarian, in the assay on MALME-3M melanoma and in the assay on HCC-2998 colon was > 100 µM each time. For the same compound, the TGI with MCF7 breast, in the assay on UACC-62 melanoma, in the assay on HCT-116 colon and in the assay on T-47D breast was > 100 µM throughout.

With `COc1cccc(-c2nc(-c3ccc(NC(=O)c4ccccc4)cc3)[nH]c2-c2ccnc(Br)c2)c1`, the GI50 is 1.67 µM in the assay on K-562 leukemia; 2.69 µM in the assay on HT29 colon; 1.79 µM with SK-MEL-5 melanoma; 4.02 µM with OVCAR-8 ovarian; 2.86 µM with MALME-3M melanoma; 2.4 µM in the assay with MCF7 breast. The results for the GI50 in the assay with UACC-62 melanoma, in the assay with HCT-116 colon and with T-47D breast were 2.95 µM, 3.29 µM and 2.44 µM, respectively. Further, the TGI in the assay with K-562 leukemia is > 100 µM; in the assay on HT29 colon, > 100 µM; in the assay with SK-MEL-5 melanoma, 3.34 µM; in the assay with OVCAR-8 ovarian, > 100 µM; with MALME-3M melanoma, > 100 µM; in the assay on MCF7 breast it was > 100 µM. The TGI in the assay on UACC-62 melanoma, with HCT-116 colon and with T-47D breast was > 100 µM throughout.

Turning to `N#Cc1ccc(-c2nc3ccc(Cl)cc3[nH]2)cc1`, the TGI in the assay with K-562 leukemia, with HT29 colon, with SK-MEL-5 melanoma, with OVCAR-8 ovarian, with HCC-2998 colon and in the assay on MCF7 breast was > 100 µM in each case. Also, the TGI in the assay with T-47D breast was > 100 µM.

Turning to `O=C1/C=C/[C@@H](O)[C@@H]2C[C@@H](O)C[C@H]2/C=C/CCC[C@H](CO)O1`, the GI50 is 0.942 µM in the assay on HT29 colon; 0.705 µM with SK-MEL-5 melanoma; 3 µM in the assay with OVCAR-8 ovarian; 1.93 µM in the assay on MALME-3M melanoma; 2.61 µM in the assay on HCC-2998 colon; 1.79 µM in the assay on MCF7 breast. The GI50 with UACC-62 melanoma is 2.55 µM; with HCT-116 colon it was 2.52 µM; with T-47D breast it was 2.49 µM. In addition, the TGI was 12.4 µM in the assay on HT29 colon; 2.08 µM in the assay with SK-MEL-5 melanoma; > 100 µM in the assay on OVCAR-8 ovarian; 7.19 µM with MALME-3M melanoma; > 100 µM in the assay with HCC-2998 colon; 5.88 µM in the assay with MCF7 breast. For the same compound, the TGI in the assay on UACC-62 melanoma is > 100 µM; in the assay on HCT-116 colon, 6.54 µM; in the assay on T-47D breast it was 7.12 µM.
